This note sets out measurements from patent US20220106301A1, “ACETAMIDO-PHENYLBENZAMIDE DERIVATIVES AND METHODS OF USING THE SAME” (Athenex, Inc., priority 2020, published 2022).

Where only a bound is given, the exact number is not on record here.

Chain of CYP3A4 (P08684 whole entry): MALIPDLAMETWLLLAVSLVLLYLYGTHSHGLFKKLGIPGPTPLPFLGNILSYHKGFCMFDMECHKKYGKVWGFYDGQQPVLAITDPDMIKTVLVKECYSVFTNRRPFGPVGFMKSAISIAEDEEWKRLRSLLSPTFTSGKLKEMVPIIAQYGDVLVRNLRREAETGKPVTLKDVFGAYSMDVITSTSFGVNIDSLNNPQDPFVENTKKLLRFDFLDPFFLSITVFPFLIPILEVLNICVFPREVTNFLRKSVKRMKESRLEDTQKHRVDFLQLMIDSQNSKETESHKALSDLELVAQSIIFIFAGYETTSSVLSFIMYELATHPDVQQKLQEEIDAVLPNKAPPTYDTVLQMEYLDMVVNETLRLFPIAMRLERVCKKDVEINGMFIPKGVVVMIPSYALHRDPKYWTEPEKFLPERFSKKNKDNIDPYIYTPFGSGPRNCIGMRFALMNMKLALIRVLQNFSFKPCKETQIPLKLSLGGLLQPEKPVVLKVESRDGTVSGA
T1 sequence (P08183 whole entry): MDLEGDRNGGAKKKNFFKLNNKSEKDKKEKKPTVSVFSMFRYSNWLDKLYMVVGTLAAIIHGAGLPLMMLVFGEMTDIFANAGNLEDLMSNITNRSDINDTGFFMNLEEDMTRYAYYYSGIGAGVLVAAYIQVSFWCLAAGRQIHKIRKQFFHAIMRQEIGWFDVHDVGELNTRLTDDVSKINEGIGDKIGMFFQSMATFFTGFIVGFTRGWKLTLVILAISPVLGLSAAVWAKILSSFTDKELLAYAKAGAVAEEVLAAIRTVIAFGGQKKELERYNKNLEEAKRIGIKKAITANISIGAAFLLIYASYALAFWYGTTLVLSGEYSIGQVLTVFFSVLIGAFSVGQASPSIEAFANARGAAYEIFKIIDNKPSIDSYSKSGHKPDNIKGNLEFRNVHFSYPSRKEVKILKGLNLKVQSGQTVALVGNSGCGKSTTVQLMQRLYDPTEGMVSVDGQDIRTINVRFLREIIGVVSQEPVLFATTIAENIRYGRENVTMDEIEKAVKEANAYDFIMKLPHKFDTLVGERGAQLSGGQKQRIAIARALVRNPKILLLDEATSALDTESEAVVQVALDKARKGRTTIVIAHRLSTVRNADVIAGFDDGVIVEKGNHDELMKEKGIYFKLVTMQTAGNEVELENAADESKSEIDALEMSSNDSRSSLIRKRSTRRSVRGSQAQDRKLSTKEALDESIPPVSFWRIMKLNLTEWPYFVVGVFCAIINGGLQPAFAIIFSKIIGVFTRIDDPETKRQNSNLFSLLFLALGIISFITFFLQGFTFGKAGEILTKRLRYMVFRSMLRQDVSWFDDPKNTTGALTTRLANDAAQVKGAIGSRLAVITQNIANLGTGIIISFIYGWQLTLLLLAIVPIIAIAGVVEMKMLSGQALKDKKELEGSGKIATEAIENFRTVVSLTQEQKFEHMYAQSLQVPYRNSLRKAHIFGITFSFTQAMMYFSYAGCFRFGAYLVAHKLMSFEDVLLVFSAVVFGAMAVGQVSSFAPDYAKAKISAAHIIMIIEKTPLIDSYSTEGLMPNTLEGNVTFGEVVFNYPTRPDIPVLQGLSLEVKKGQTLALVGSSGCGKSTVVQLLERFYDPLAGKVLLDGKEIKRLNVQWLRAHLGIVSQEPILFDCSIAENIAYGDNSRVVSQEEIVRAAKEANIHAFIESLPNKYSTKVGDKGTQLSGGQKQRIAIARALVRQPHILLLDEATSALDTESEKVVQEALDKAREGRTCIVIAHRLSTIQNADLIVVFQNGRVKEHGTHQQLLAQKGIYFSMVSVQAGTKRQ

One series has as its target T1, P-glycoprotein (Homo sapiens, UniProt P08183).
T1 construct: A P-glycoprotein overexpressing cell line derived from the human uterine sarcoma cell line MES-SA; host or cells: MES-SA/DX5 (human uterine sarcoma, doxorubicin-selected)
As to the kind of experiment: Determination of P-glycoprotein inhibitory activity (MTT cell growth, MES-SA/DX5 cells with docetaxel or paclitaxel). Conditions: compound + 100 nM docetaxel or 200 nM paclitaxel, 3 days. It is filed as cell-based. The method, then:
A P-glycoprotein overexpressing cell line derived from the human uterine sarcoma cell line MES-SA (i.e., MES-SA/DX5 cells (ATCC)) was seeded by stepwise exposures to increasing concentrations of doxorubicin, in a 96-well plate at 6,500 cells/100 μL media (McCoy's 5A+10% FBS) in each well. The cells were incubated overnight at 37° C., 5% CO2. […] DMSO was used as a negative control and known P-glycoprotein inhibitor, encequidar methane sulfonic acid monohydrate (HM30181A), was used as a positive control. […] Treated cells were incubated for 3 days at 37° C., 5% CO2.
To value (reflecting the starting number of cells upon Compound treatment) of 3 wells of cells was determined by performing the following steps 1-4 as described below.
1. 10 μL MTT (5 mg/mL in PBS) was added to each well and incubated for 1.5 hours at 37° C., 5% CO2.
2. Culture media was removed and 100 μL of DMSO was added to each well.
3. The plate was gently shook until all purple MTT formazan crystals were dissolved. OD540 was then measured using microplate reader.
4. Cell growth percentage was calculated with the following equation:
Cell growth percentage=(T−T0)/(C−T0)×100%,
Consider `COc1cc2c(cc1OC)CN(CCc1ccc(-n3nnc(-c4cc(OC)c(OC)cc4NC(=O)c4cc(=O)c5ccccc5o4)n3)cc1)CC2.CS(=O)(=O)O.O` [encequidar methane sulfonic acid monohydrate], for which the EC50 is less than 100 nM.

The next series concerns the target CYP3A4 (Homo sapiens, UniProt P08684). Briefly: Determination of CYP3A4 inhibitory activity (human liver microsome, Luciferin-IPA). The conditions noted are these: CYP3A4 IC50 (nM), 37° C. 11 minutes. In outline: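 Final compound concentrations 37, 111, 333, 1000 and 3000 nM; reaction at 37° C for 11 min, then luciferin detection reagent 5 min at room temperature with luminescence read-out. IC50 from nonlinear regression of dose-response.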
For the molecule `COc1cc(NC(=O)c2cc(=O)c3ccccc3o2)c(C(=O)Nc2ccc(CCN(Cc3cncc(OCCN(C)C)c3)Cc3ccc4c(cnn4C)c3)cc2)cc1OC` [Compound 244], the IC50 was greater than 1000 nM.

Molecule `COc1cc(NC(=O)c2cc(=O)c3ccccc3o2)c(C(=O)Nc2ccc(CCN(Cc3cccc(-n4ccnc4)c3)Cc3cccc(-n4ccnc4C)c3)cc2)cc1OC` [Compound 245] showed an IC50 of 250 to 500 nM.

Take `COc1cc(NC(=O)c2cc(=O)c3ccccc3o2)c(C(=O)Nc2ccc(CCN(Cc3cncc(OCCN)c3)Cc3ccc4c(cnn4C)c3)cc2)cc1OC` [Compound 246]: the IC50 was greater than 1000 nM.

Turning to `COc1cc(NC(=O)c2cc(=O)c3ccccc3o2)c(C(=O)Nc2ccc(CCN(Cc3cncc(O)c3)Cc3ccc4c(c3)c(C)nn4C)cc2)cc1OC` [Compound 247], the IC50 is 100 to 250 nM. The same measure, in the same setting: to `CCn1ncc2cc(CN(CCc3ccc(NC(=O)c4cc(OC)c(OC)cc4NC(=O)c4cc(=O)c5ccccc5o4)cc3)Cc3cccnc3)ccc21` [Compound 248] belongs 250 to 500 nM; to `COc1cc(NC(=O)c2cc(=O)c3ccccc3o2)c(C(=O)Nc2ccc(CCN(Cc3cccc(-n4ccnc4C)c3)Cc3ccc4c(cnn4C)c3)cc2)cc1OC` [Compound 249], greater than 1000 nM. As for `COc1cc(NC(=O)c2cc(=O)c3ccccc3o2)c(C(=O)Nc2ccc(CCN(Cc3cccnc3)Cc3ccc(C)c4ncccc34)cc2)cc1OC` [Compound 250], the IC50 was in the range of 100 to 250 nM.

In the case of `COc1cc(NC(=O)c2cc(=O)c3cc(C)ccc3o2)c(C(=O)Nc2ccc(CCN(Cc3ccc4c(cnn4C)c3)Cc3ccc4c(c3)nnn4C)cc2)cc1OC` [Compound 251], the IC50 is greater than 1000 nM. Regarding `COc1cncc(CN(CCc2ccc(NC(=O)c3cc(OC)c(OC)cc3NC(=O)c3cc(=O)c4ccccc4o3)cc2)Cc2ccc3c(cnn3C(C)=O)c2)c1` [Compound 252], the IC50 lay in the range of 250 to 500 nM. For the molecule `COc1cc(NC(=O)c2cc(=O)c3ccccc3o2)c(C(=O)Nc2ccc(CCN(Cc3cncc(C(C)C)c3)Cc3ccc4c(cnn4C)c3)cc2)cc1OC` [Compound 253], the IC50 was 500 to 1000 nM. Still for that read-out and setting: to `COc1cc(NC(=O)c2cc(=O)c3ccccc3o2)c(C(=O)Nc2ccc(CCN(Cc3cncc(-c4ccccc4)c3)Cc3ccc4c(cnn4C)c3)cc2)cc1OC` [Compound 254] belongs greater than 1000 nM.

With `COc1cc(NC(=O)c2cc(=O)c3cc(C)ccc3o2)c(C(=O)Nc2ccc(CCN(Cc3cncc(-c4ccccc4)c3)Cc3ccc4c(cnn4C)c3)cc2)cc1OC` [Compound 255], the IC50 is greater than 1000 nM. Same read-out and setting: the result for `Cn1ncc2cc(CNCCc3ccc(NC(=O)c4ccc(C(=O)O)cc4NC(=O)c4cc(=O)c5ccccc5o4)cc3)ccc21` [Compound 256] reads greater than 1000 nM. Still for that read-out and setting: to `COC(=O)c1ccc(C(=O)Nc2ccc(CCN(Cc3ccc4c(cnn4C)c3)Cc3ccc4c(cnn4C)c3)cc2)c(NC(=O)c2cc(=O)c3ccccc3o2)c1` [Compound 257] belongs greater than 1000 nM; to `COC(=O)c1ccc(C(=O)Nc2ccc(CCN(Cc3cncc(OC)c3)Cc3cncc(OC)c3)cc2)c(NC(=O)c2cc(=O)c3ccccc3o2)c1` [Compound 258], less than 100 nM; to `COc1cncc(CN(CCc2ccc(NC(=O)c3ccc(C(=O)O)cc3NC(=O)c3cc(=O)c4ccccc4o3)cc2)Cc2ccc3c(cnn3C)c2)c1` [Compound 259], greater than 1000 nM.

Turning to `COC(=O)c1ccc(C(=O)Nc2ccc(CCN(Cc3cccc(-n4ccnc4)c3)Cc3cccc(-n4ccnc4)c3)cc2)c(NC(=O)c2cc(=O)c3ccccc3o2)c1` [Compound 260], the IC50 is less than 100 nM. With `COc1cc2c(cc1OC)CN(CCc1ccc(NC(=O)c3ccc(C(=O)O)cc3NC(=O)c3cc(=O)c4ccccc4o3)cc1)CC2` [Compound 261], the IC50 is greater than 1000 nM. Consider `COc1cc2c(cc1OC)CN(CCc1ccc(NC(=O)c3ccc(C(=O)OCCCn4ccnc4)cc3NC(=O)c3cc(=O)c4ccccc4o3)cc1)CC2` [Compound 262], for which the IC50 is less than 100 nM.

With `COC(=O)c1ccc(C(=O)Nc2ccc(CCN(Cc3ccc(OC)c(OC)c3)Cc3ccc(OC)c(OC)c3)cc2)c(NC(=O)c2cc(=O)c3ccccc3o2)c1` [Compound 263], the IC50 was greater than 1000 nM.

As for `COc1ccc(CN(CCc2ccc(NC(=O)c3ccc(C(=O)O)cc3NC(=O)c3cc(=O)c4ccccc4o3)cc2)Cc2ccc(OC)c(OC)c2)cc1OC` [Compound 264], the half-inhibitory concentration (IC50) is greater than 1000 nM. Same read-out and setting: to `COc1ccc(CN(CCc2ccc(NC(=O)c3ccc(C(=O)OCc4cccnc4)cc3NC(=O)c3cc(=O)c4ccccc4o3)cc2)Cc2ccc(OC)c(OC)c2)cc1OC` [Compound 265] belongs greater than 1000 nM; to `Cn1ncc2cc(CN(CCc3ccc(NC(=O)c4ccc(C(=O)OCc5cncs5)cc4NC(=O)c4cc(=O)c5ccccc5o4)cc3)Cc3ccc4c(cnn4C)c3)ccc21` [Compound 266], greater than 1000 nM; to `Cn1ncc2cc(CN(CCc3ccc(NC(=O)c4ccc(C(=O)O)cc4NC(=O)c4cc(=O)c5ccccc5o4)cc3)Cc3ccc4c(cnn4C)c3)ccc21` [Compound 267], greater than 1000 nM. Same read-out and setting: to `Cn1ncc2cc(CN(CCc3ccc(NC(=O)c4ccc(C(=O)OCc5cccnc5)cc4NC(=O)c4cc(=O)c5ccccc5o4)cc3)Cc3ccc4c(cnn4C)c3)ccc21` [Compound 268] belongs greater than 1000 nM; to `COC(=O)c1ccc(C(=O)Nc2ccc(CCN(C)Cc3ccc4c(cnn4C)c3)cc2)c(NC(=O)c2cc(=O)c3ccccc3o2)c1` [Compound 270], greater than 1000 nM; to `CN(CCc1ccc(NC(=O)c2ccc(C(=O)O)cc2NC(=O)c2cc(=O)c3ccccc3o2)cc1)Cc1ccc2c(cnn2C)c1` [Compound 271], greater than 1000 nM. Consider `COc1cncc(CN(CCc2ccc(NC(=O)c3ccc(C(=O)OCCN4CCN(C)CC4)cc3NC(=O)c3cc(=O)c4ccccc4o3)cc2)Cc2ccc3c(cnn3C)c2)c1` [Compound 272], for which the concentration for half-maximal inhibition (IC50) was in the range of 250 to 500 nM.

As for `COC(=O)c1ccc(C(=O)Nc2ccc(CCN(C)Cc3ccc4c(cnn4C)c3)cc2)c(NC(=O)c2ccccn2)c1` [Compound 277], the IC50 is greater than 1000 nM.

Molecule `COc1cncc(CN(CCc2ccc(NC(=O)c3ccc(C(=O)NS(=O)(=O)N(C)C)cc3NC(=O)c3cc(=O)c4ccccc4o3)cc2)Cc2ccc3c(cnn3C)c2)c1` [Compound 278] had an IC50 of 250 to 500 nM. With `CN(CCc1ccc(NC(=O)c2ccc(C(=O)OCc3cscn3)cc2NC(=O)c2cc(=O)c3ccccc3o2)cc1)Cc1ccc2c(cnn2C)c1` [Compound 280], the 50% inhibitory concentration (IC50) is 100 to 250 nM. With `COC(=O)c1ccc(C(=O)Nc2ccc(CCN(C)Cc3ccc4c(cnn4C)c3)cc2)c(NC(=O)c2cnc3ccccc3c2)c1` [Compound 281], the concentration for half-maximal inhibition (IC50) was greater than 1000 nM.

Regarding `CN(CCc1ccc(NC(=O)c2ccc(C(=O)OCc3cncs3)cc2NC(=O)c2cnc3ccccc3c2)cc1)Cc1ccc2c(cnn2C)c1` [Compound 283], the IC50 is 500 to 1000 nM.

Staying with this series, now noted: read-out: CYP3A4 IC50, 37° C. 11 minutes.
As to `COc1cc2c(cc1OC)CN(CCc1ccc(-n3nnc(-c4cc(OC)c(OC)cc4NC(=O)c4cc(=O)c5ccccc5o4)n3)cc1)CC2.CS(=O)(=O)O.O` [encequidar methane sulfonic acid monohydrate], the IC50 was greater than 1000 nM.

Tested on in another series: not listed separately
As to the kind of experiment: Oral absorption of docetaxel in mice (plasma pharmacokinetics of oral docetaxel co-dosed with compound). It is filed as in vivo. Conditions: CD-1 mice, oral docetaxel 10 mg/kg with oral compound (Compound 16 80 mg/kg, Compound 48 20 mg/kg, encequidar 10 mg/kg); plasma. The method, then:
In vivo activity of the compounds of the present disclosure was performed as follows: Eighteen 7- to 9-week-old CD-1 mice were fasted overnight prior to drug administration while they were allowed free access to water and were fed 4 hours post dosing. Mice were divided into four groups of three to five […] each.
Blood samples (approx. 30-50 μL) were obtained via peripheral veins of each mouse before (0) and 0.25, 0.5, 1, 2, 4, and 8 hours after docetaxel administration for control group (entry 1, Table C) and at 0.25, 0.5, 1, 2, 4, and 8 hours after docetaxel administration for rest of the groups (entries 2-4, Table C). Blood samples were treated with EDTA-K2 as anti-coagulant and placed on ice until centrifugation. Each blood sample was centrifuged at 4° C., 3000 g for 15 min within 0.5 hour from plasma collection. An aliquot of 20 μL plasma sample was protein precipitated with 100 μL IS (Internal Standard) solution (100 ng/mL labetalol+100 ng/mL tolbutamide in acetonitrile, 1:1), the mixture was vortex-mixed and centrifuged at 4000 rpm for 15 min at 4° C. An aliquot of 80 μL sample was transferred to a sample plate and mixed with 80 μL water, then the plate was shook at 800 rpm for 10 min. 1-10 μL of the supernatant was then injected for LC-MS/MS analysis under the following conditions:
MS conditions: ESI, positive;
Column: Waters ACQUITY UPLC BEH C18 2.1×50 mm, 1.7 μm;
Mobile phase A: 0.1% formic acid in water; and
Mobile phase B: 0.1% formic acid in acetonitrile.
Take `COc1cc2c(cc1OC)CN(CCc1ccc(-n3nnc(-c4cc(OC)c(OC)cc4NC(=O)c4cc(=O)c5ccccc5o4)n3)cc1)CC2.CS(=O)(=O)O.O` [encequidar methane sulfonic acid monohydrate]: the “AUC0-inf of oral docetaxel (area under the curve of plasma concentration)” value was 698 ± 238 ng·h/mL, the “Cmax of oral docetaxel (maximum plasma concentration)” value was 316 ± 98.1 ng/mL and the “Tmax of oral docetaxel (time at the maximum plasma concentration)” value was found to be 42 ± 16.4 min.

The same series, now with this note: CD-1 mice; as compared to when there was no inhibitor.
On to `COc1cc2c(cc1OC)CN(CCc1ccc(-n3nnc(-c4cc(OC)c(OC)cc4NC(=O)c4cc(=O)c5ccccc5o4)n3)cc1)CC2.CS(=O)(=O)O.O` [encequidar methane sulfonic acid monohydrate], for which the “increase in the systemic bioavailability of orally dosed docetaxel” value is listed as 3.4 fold.
